# Measured values reported in patent US12686873B2, “Plants having increased tolerance to herbicides” (priority 2012, dated 2026).
# “And” between values parts separate entries of the source, which are not always exact repeats. Identical values can stand only once.
# Tests used:
# Soy = assay: Tolerance rates for soybean (injury score 0-9)
# Corn = assay: Tolerance rates for corn (injury score 0-9)
smiles,measurement,setting,value
CCOc1cc(Oc2ccc(C(F)(F)F)cc2Cl)ccc1[N+](=O)[O-] [Oxyfluorfen],injury score,"Soy; Oxyfluorfen 600 g ai/ha, amino acid substitution L397D_F420V Event A, SEQ ID NO 2",4 and 5 and 6 and 9
same,injury score,"Soy; Oxyfluorfen 600 g ai/ha, amino acid substitution L397D_F420V Event B, SEQ ID NO 2",6 and 4 and 8 and 5
same,injury score,"Soy; Oxyfluorfen 600 g ai/ha, amino acid substitution none, SEQ ID NO none",8 and 7 and 9
same,injury score,"Soy; Oxyfluorfen 1200 g ai/ha, amino acid substitution L397D_F420V Event A, SEQ ID NO 2",5 and 4 and 3
same,injury score,"Soy; Oxyfluorfen 1200 g ai/ha, amino acid substitution L397D_F420V Event B, SEQ ID NO 2",5 and 4 and 6
same,injury score,"Soy; Oxyfluorfen 1200 g ai/ha, amino acid substitution none, SEQ ID NO none",9 and 8
C#CCN1C(=O)COc2cc(F)c(N3C(=O)C4=C(CCCC4)C3=O)cc21 [flumioxazin],injury score,"Soy; Flumioxazin 150 g ai/ha, amino acid substitution L397D_F420V Event A, SEQ ID NO 2",9 and 6 and 5 and 4
same,injury score,"Soy; Flumioxazin 150 g ai/ha, amino acid substitution L397D_F420V Event B, SEQ ID NO 2",5 and 6 and 4
same,injury score,"Soy; Flumioxazin 150 g ai/ha, amino acid substitution none, SEQ ID NO none",9
CS(=O)(=O)NC(=O)c1cc(Oc2ccc(C(F)(F)F)cc2Cl)ccc1[N+](=O)[O-] [fomesafen],injury score,"Soy; Fomesafen 600 g ai/ha, amino acid substitution L397D_F420V Event A, SEQ ID NO 2",1 and 2 and 0 and 4
same,injury score,"Soy; Fomesafen 600 g ai/ha, amino acid substitution L397D_F420V Event B, SEQ ID NO 2",2 and 4 and 1 and 3
same,injury score,"Soy; Fomesafen 600 g ai/ha, amino acid substitution none, SEQ ID NO none",5 and 4
CC(C)N(C)S(=O)(=O)NC(=O)c1cc(-n2c(=O)cc(C(F)(F)F)n(C)c2=O)c(F)cc1Cl [saflufenacil],injury score,"Soy; Soy, saflufenacil 12.5 g ai/ha, amino acid substitution F420L, SEQ ID NO 2",1 and 0 and 3
same,injury score,"Soy; Soy, saflufenacil 12.5 g ai/ha, amino acid substitution L369D, F392V, SEQ ID NO 40",9 and 7 and 4 and 5 and 6
same,injury score,"Soy; Soy, saflufenacil 12.5 g ai/ha, amino acid substitution L397E, SEQ ID NO 2",5 and 4 and 0 and 3
same,injury score,"Soy; Soy, saflufenacil 12.5 g ai/ha, amino acid substitution L397Q, SEQ ID NO 2",4
same,injury score,"Soy; Soy, saflufenacil 12.5 g ai/ha, amino acid substitution none, SEQ ID NO 2",2 and 4 and 7 and 8 and 5
same,injury score,"Soy; Soy, saflufenacil 12.5 g ai/ha, amino acid substitution none, SEQ ID NO 40",9 and 3 and 4 and 8 and 7
same,injury score,"Soy; Soy, saflufenacil 25 g ai/ha, amino acid substitution F420L, SEQ ID NO 2",9 and 0 and 2
same,injury score,"Soy; Soy, saflufenacil 25 g ai/ha, amino acid substitution L369D, F392V, SEQ ID NO 40",9 and 5 and 6 and 7 and 4
same,injury score,"Soy; Soy, saflufenacil 25 g ai/ha, amino acid substitution L397D, SEQ ID NO 2",7 and 2 and 9 and 5 and 3
same,injury score,"Soy; Soy, saflufenacil 25 g ai/ha, amino acid substitution L397E, SEQ ID NO 2",3 and 6 and 4 and 5 and 1
same,injury score,"Soy; Soy, saflufenacil 25 g ai/ha, amino acid substitution L397Q, SEQ ID NO 2",3
same,injury score,"Soy; Soy, saflufenacil 25 g ai/ha, amino acid substitution none, SEQ ID NO 2",4 and 3 and 7 and 9 and 8
same,injury score,"Soy; Soy, saflufenacil 25 g ai/ha, amino acid substitution none, SEQ ID NO 40",9 and 6
same,injury score,"Soy; Soy, saflufenacil 50 g ai/ha, amino acid substitution F420L, SEQ ID NO 2",9 and 0 and 2
same,injury score,"Soy; Soy, saflufenacil 50 g ai/ha, amino acid substitution L369D, F392V, SEQ ID NO 40",9 and 6 and 7 and 5
same,injury score,"Soy; Soy, saflufenacil 50 g ai/ha, amino acid substitution L397D, SEQ ID NO 2",9 and 4 and 3 and 6 and 5
same,injury score,"Soy; Soy, saflufenacil 50 g ai/ha, amino acid substitution L397E, F420M, SEQ ID NO 2",1 and 0 and 2
same,injury score,"Soy; Soy, saflufenacil 50 g ai/ha, amino acid substitution L397E, SEQ ID NO 2",3 and 6 and 4 and 7
same,injury score,"Soy; Soy, saflufenacil 50 g ai/ha, amino acid substitution L397Q, F420M, SEQ ID NO 2",0 and 6 and 1 and 5 and 4
same,injury score,"Soy; Soy, saflufenacil 50 g ai/ha, amino acid substitution L397Q, F420V, SEQ ID NO 2",0 and 7
same,injury score,"Soy; Soy, saflufenacil 50 g ai/ha, amino acid substitution L397Q, SEQ ID NO 2",8
same,injury score,"Soy; Soy, saflufenacil 50 g ai/ha, amino acid substitution none, SEQ ID NO 2",7 and 8 and 9 and 6
same,injury score,"Soy; Soy, saflufenacil 50 g ai/ha, amino acid substitution none, SEQ ID NO 40",9 and 8
same,injury score,"Soy; Soy, saflufenacil 100 g ai/ha, amino acid substitution F420L, SEQ ID NO 2",9
same,injury score,"Soy; Soy, saflufenacil 100 g ai/ha, amino acid substitution L369D, F392V, SEQ ID NO 40",9 and 6
same,injury score,"Soy; Soy, saflufenacil 100 g ai/ha, amino acid substitution L397D, SEQ ID NO 2",9 and 4 and 6 and 5
same,injury score,"Soy; Soy, saflufenacil 100 g ai/ha, amino acid substitution L397E, F420M, SEQ ID NO 2",2 and 0 and 1
same,injury score,"Soy; Soy, saflufenacil 100 g ai/ha, amino acid substitution L397Q, F420M, SEQ ID NO 2",0 and 7 and 3 and 6 and 1 and 2
same,injury score,"Soy; Soy, saflufenacil 100 g ai/ha, amino acid substitution L397Q, F420V, SEQ ID NO 2",0 and 7
same,"Tolerance rate (injury score), Saflufenacil 25 g ai/ha","Corn; Corn events with PPO L397D, F420M (SEQ ID NO 2), Saflufenacil 25 g ai/ha",2 and 3 and 1
same,"Tolerance rate (injury score), Saflufenacil 50 g ai/ha","Corn; Corn events with PPO L397D, F420M (SEQ ID NO 2), Saflufenacil 50 g ai/ha",1 and 2 and 3 and 0
same,"Tolerance rate (injury score), Saflufenacil 100 g ai/ha","Corn; Corn events with PPO L397D, F420M (SEQ ID NO 2), Saflufenacil 100 g ai/ha",7 and 3
same,"Tolerance rate (injury score), Saflufenacil 100 g ai/ha","Corn; Corn events with PPO L397E, F420M (SEQ ID NO 2), Saflufenacil 100 g ai/ha",1 and 0 and 7
same,"Tolerance rate (injury score), Saflufenacil 100 g ai/ha","Corn; Corn events with PPO L397Q (SEQ ID NO 2), Saflufenacil 100 g ai/ha",4 and 5
same,"Tolerance rate (injury score), Saflufenacil 100 g ai/ha","Corn; Corn events with PPO L397Q, F420M (SEQ ID NO 2), Saflufenacil 100 g ai/ha",0 and 1
same,"Tolerance rate (injury score), Saflufenacil 100 g ai/ha","Corn; Corn events with PPO L397Q, F420V (SEQ ID NO 2), Saflufenacil 100 g ai/ha",4 and 2 and 3 and 7 and 5
same,"Tolerance rate (injury score), Saflufenacil 100 g ai/ha","Corn; Corn events, amino acid substitution not given, Saflufenacil 100 g ai/ha",1
same,"Tolerance rate (injury score), corn","Corn; Saflufenacil 25 g ai/ha, corn events 37-53, amino acid substitution not given",6 and 7 and 5 and 8 and 4
same,"Tolerance rate (injury score), corn","Corn; Saflufenacil 25 g ai/ha, corn events with PPO substitution F420L (SEQ ID NO 2)",6 and 7
same,"Tolerance rate (injury score), corn","Corn; Saflufenacil 25 g ai/ha, corn events with PPO substitution F420M (SEQ ID NO 2)",4 and 6 and 8 and 7 and 5
same,"Tolerance rate (injury score), corn","Corn; Saflufenacil 25 g ai/ha, corn events with PPO substitution L397D, F420V (SEQ ID NO 2)",6 and 5 and 7
same,"Tolerance rate (injury score), corn","Corn; Saflufenacil 25 g ai/ha, corn events with PPO substitution L397E, F420V (SEQ ID NO 2)",1 and 0 and 3
same,"Tolerance rate (injury score), corn","Corn; Saflufenacil 50 g ai/ha, corn events 54-81, amino acid substitution not given",6 and 7 and 4 and 5
same,"Tolerance rate (injury score), corn","Corn; Saflufenacil 50 g ai/ha, corn events with PPO substitution F420L (SEQ ID NO 2)",7 and 8 and 6
same,"Tolerance rate (injury score), corn","Corn; Saflufenacil 50 g ai/ha, corn events with PPO substitution F420M (SEQ ID NO 2)",7 and 6 and 8
same,"Tolerance rate (injury score), corn","Corn; Saflufenacil 50 g ai/ha, corn events with PPO substitution L397D, F420V (SEQ ID NO 2)",4 and 6 and 7
same,"Tolerance rate (injury score), corn","Corn; Saflufenacil 50 g ai/ha, corn events with PPO substitution L397E, F420V (SEQ ID NO 2)",1 and 0 and 2 and 3
same,"Tolerance rate (injury score), corn","Corn; Saflufenacil 100 g ai/ha, corn events with PPO substitution F420L (SEQ ID NO 2)",8 and 7 and 6
same,"Tolerance rate (injury score), corn","Corn; Saflufenacil 100 g ai/ha, corn events with PPO substitution L397E, F420V (SEQ ID NO 2)",0 and 1 and 3 and 2
Cc1nn(-c2cc(NS(C)(=O)=O)c(Cl)cc2Cl)c(=O)n1C(F)F [sulfentrazone],injury score,"Soy; Sulfentrazone 350 g ai/ha, amino acid substitution L397D_F420V Event A, SEQ ID NO 2",9 and 6 and 3 and 5
same,injury score,"Soy; Sulfentrazone 350 g ai/ha, amino acid substitution L397D_F420V Event B, SEQ ID NO 2",4 and 5 and 6
same,injury score,"Soy; Sulfentrazone 350 g ai/ha, amino acid substitution none, SEQ ID NO none",9 and 7 and 8
same,injury score,"Soy; Sulfentrazone 700 g ai/ha, amino acid substitution L397D_F420V Event A, SEQ ID NO 2",2 and 3 and 7 and 1 and 4 and 6
same,injury score,"Soy; Sulfentrazone 700 g ai/ha, amino acid substitution L397D_F420V Event B, SEQ ID NO 2",4 and 5 and 6
same,injury score,"Soy; Sulfentrazone 700 g ai/ha, amino acid substitution none, SEQ ID NO none",9
